For orientation: AUC means concentration integrated over time.

The record followed here is patent US20010053778A1, “Pharmaceutical compositions of glycogen phosphorylase inhibitors” (priority 2000, published 2001).

Series [1] can be described thus: in vitro dissolution test, microcentrifuge method, PBS (Drug 1 compositions). Format: physicochemical. The following applies: for AUC90: area under aqueous concentration versus time curve after 90 minutes; for AUC90 / C1200 / Cmax, 90: PBS, dosage 2000 μg/mL; for C1200: concentration at 1200 minutes; for Cmax, 90: maximum concentration of Drug 1 in solution during first 90 minutes; for AUC / Drug Concentration: PBS pH 6.5, 37° C. The procedure:
In vitro dissolution tests were performed to evaluate the performance of the amorphous dispersions of Examples 1-9 relative to the performance of Controls 1 and 2. The dissolution performance of the SDD of Example 1 was evaluated in an in vitro dissolution test using a microcentrifuge method. In this test, 14.4 mg of the SDD of Example 1 was added to a microcentrifuge tube. The tube was placed in a 37° C. sonicating bath, and 1.8 mL phosphate buffered saline (PBS) at pH 6.5 and 290 mOsm/kg was added. The samples were quickly mixed using a vortex mixer for about 60 seconds. The samples were centrifuged at 13,000 G at 37° C. for 1 minute. The resulting supernatant solution was then sampled and diluted 1:6 (by volume) with methanol and then analyzed by high-performance liquid chromatography (HPLC). The contents of the tubes were mixed on the vortex mixer and allowed to stand undisturbed at 37° C. until the next sample was taken. Samples were collected at 4, 10, 20, 40, 90, and 1200 minutes.
The performance of Example Nos. 2-8 was likewise evaluated in in vitro dissolution tests using the same microcentrifuge method described above. The dosage for each of these tests was 2000 μg/ml.
The performance of the amorphous dispersions of Example 9 were tested using the same microcentrifuge method, except that 2.5 grams of the coated beads were added to 50 mL of PBS solution (resulting in a dosage of 2000 μg/mL).
For Controls 1 and 2, in vitro dissolution tests were also performed using the same microcentrifuge method except that 3.6 mg of either crystalline or amorphous Drug 1 was used.
These compositions were evaluated in in vitro dissolution tests using the procedures outlined in Example 10. The quantities of drug and polymer noted above were each added to a microcentrifuge tube, to which was added 1.8 ml of PBS solution. The tube was vortexed immediately after adding the PBS solution.
A coating solution comprising 7.5 wt % HPMCAS-MF dissolved in 92.5 wt % solvent (5 wt % water in acetone) was prepared and spray-coated onto Nu-Core Beads (45/60 mesh), producing a thin coating of the polymer on the surface of the beads resulting in beads containing 12.2 wt % HPMCAS-MF. Samples of these beads (2.4 gm) were then mixed with 100 mg of amorphous Drug 1 (resulting in a drug:polymer ratio of 1:3 or 25 wt % Drug 1) and evaluated in an in vitro dissolution test using the procedures outlined in Example 10.
A composition was formed by blending 50 wt % of the SDD of Example 2 (containing 50 wt % Drug 1 and 50 wt % HPMCAS-MF) with 50 wt % HPMCAS-MF. This composition was evaluated in a dissolution test as described in Example 10.

A short description of series [2]: in vitro dissolution test, microcentrifuge method, model fasted duodenal solution (Drug 2 compositions). Also on record: AUC: concentration or dose not given beside the values. The settings on record: for AUC90: aqueous area under the curve after 90 minutes; for AUC90 / C1200 / Cmax, 90 / AUC: MFDS; for AUC90 / C1200 / Cmax, 90: dosage 1000 μg/mL; for C1200: concentration at 1200 minutes; for Cmax, 90: maximum concentration of Drug 2 in solution during first 90 minutes; for Drug Concentration: MFDS pH 6.5, 37° C. Format: physicochemical. How it is done: In vitro dissolution tests were performed to evaluate the performance of the amorphous dispersions of Examples 12-17 relative to the performance of Controls 4 and 5. The SDD of Example 12 was evaluated in an in vitro dissolution test using a microcentrifuge method. In this test, 3600 μg of the SDD of Example 12 was added to a microcentrifuge tube. The tube was placed in a 37° C. sonicating bath, and 1.8 mL of model fasted duodenal solution (MFDS), comprising phosphate buffered saline with 14.7 mM sodium taurocholic acid and 2.8 mM of 1-palmitoyl-2-oleyl-sn-glycero-3-phosphocholine, pH 6.5, 290 mOsm/kg, was added. […] The samples were quickly mixed using a vortex mixer for about 60 seconds. The samples were centrifuged at 13,000 G at 37° C. for 1 minute. The resulting supernatant solution was then sampled and diluted 1:6 (by volume) with methanol and then analyzed by high-performance liquid chromatography (HPLC). The contents of the tubes were mixed on the vortex mixer and allowed to stand undisturbed at 37° C. until the next sample was taken. Samples were collected at 4, 10, 20, 40, 90, and 1200 minutes.
For Controls 4 and 5, in vitro dissolution tests were performed using the procedures described above except that 1.8 mg of crystalline and amorphous Drug 2 was used, respectively.

Consider `O=C(N[C@@H](Cc1ccccc1)[C@@H](O)C(=O)N1C[C@@H](O)[C@@H](O)C1)c1cc2cc(Cl)ccc2[nH]1` [Control 1], for which, in series [1], the AUC90 is listed as 12,800 min* μg/mL. The compound also yielded a C1200 in series [1] of 125 µg/mL. In addition, the “Cmax, 90” value in series [1] turned out to be 149 µg/mL. Further, the AUC was 0 µg·min/mL in series [1] (time 0 min); 260 µg·min/mL in series [1] (time 4 min); 1,100 min* μg/mL in series [1] (time 10 min); 2,500 min* μg/mL in series [1] (time 20 min); 5,400 min* μg/mL in series [1] (time 40 min); 12,800 min* μg/mL in series [1] (time 90 min). Further, in series [1] (time 1200 min), the AUC is listed as 163,800 min* μg/mL. Also, the “Drug Concentration” value is 0 µg/mL in series [1] (time 0 min); 130 µg/mL in series [1] (time 4 min); 149 µg/mL in series [1] (time 10 min); 139 µg/mL in series [1] (time 20 min); 149 µg/mL in series [1] (time 40 min); 147 µg/mL in series [1] (time 90 min). For the same compound, the “Drug Concentration” value in series [1] (time 1200 min) stood at 125 µg/mL.

For the compound `O=C(N[C@@H](Cc1ccccc1)[C@@H](O)C(=O)N1C[C@@H](O)[C@@H](O)C1)c1cc2cc(Cl)ccc2[nH]1` [Control 2], the AUC90 in series [1] is recorded as 20,600 min* μg/mL. The compound further yielded a C1200 in series [1] of 203 µg/mL. Besides, the “Cmax, 90” value in series [1] is 586 µg/mL. In addition, the AUC in series [1] (time 0 min) is 0 µg·min/mL; in series [1] (time 4 min), 1,200 min* μg/mL; in series [1] (time 10 min), 4,400 min* μg/mL; in series [1] (time 20 min), 7,800 min* μg/mL; in series [1] (time 40 min), 11,700 min* μg/mL; in series [1] (time 90 min), 20,600 min* μg/mL. Further, the figures for the AUC in series [1] (time 180 min) and in series [1] (time 1200 min) were 35,200 min* μg/mL and 225,900 min* μg/mL, respectively. For the same compound, the “Drug Concentration” value in series [1] (time 0 min) was 0 µg/mL; in series [1] (time 4 min), 586 µg/mL; in series [1] (time 10 min), 473 µg/mL; in series [1] (time 20 min) it was 220 µg/mL; in series [1] (time 40 min), 182 µg/mL; in series [1] (time 90 min) it was 167 µg/mL. Also, the “Drug Concentration” value in series [1] (time 180 min) came out at 158 µg/mL; in series [1] (time 1200 min), 203 µg/mL.

Consider `O=C(N[C@@H](Cc1ccccc1)C(=O)N1CC(O)C1)c1cc2cc(Cl)ccc2[nH]1` [Control 4], for which the AUC90 in series [2] is 5,900 min* μg/mL. This compound registered a C1200 in series [2] of 102 µg/mL. In addition, in series [2], the “Cmax, 90” value was determined as 82 µg/mL. Further, the AUC in series [2] (time 0 min) is 0 µg·min/mL; in series [2] (time 4 min) it was 90 µg·min/mL; in series [2] (time 10 min), 357 µg·min/mL; in series [2] (time 20 min) it was 842 µg·min/mL; in series [2] (time 40 min) it was 2,100 min* μg/mL; in series [2] (time 90 min), 5,900 min* μg/mL. Further, the AUC in series [2] (time 1200 min) was 108,100 min* μg/mL. Also, the “Drug Concentration” value in series [2] (time 0 min) is 0 µg/mL; in series [2] (time 4 min), 45 µg/mL; in series [2] (time 10 min), 44 µg/mL; in series [2] (time 20 min) it was 53 µg/mL; in series [2] (time 40 min) it was 72 µg/mL; in series [2] (time 90 min) it was 82 µg/mL. Further, the “Drug Concentration” value in series [2] (time 1200 min) was found to be 102 µg/mL.

Take `O=C(N[C@@H](Cc1ccccc1)C(=O)N1CC(O)C1)c1cc2cc(Cl)ccc2[nH]1` [Control 5]: the AUC90 in series [2] is recorded as 20,800 min* μg/mL. Further, the C1200 in series [2] amounted to 370 µg/mL. The “Cmax, 90” value in series [2] amounted to 268 µg/mL. Moreover, the AUC is 0 µg·min/mL in series [2] (time 0 min); 302 µg·min/mL in series [2] (time 4 min); 1,400 min* μg/mL in series [2] (time 10 min); 3,500 min* μg/mL in series [2] (time 20 min); 8,100 min* μg/mL in series [2] (time 40 min); 20,800 min* μg/mL in series [2] (time 90 min). The AUC in series [2] (time 1200 min) is reported as 374,900 min* μg/mL. In addition, the “Drug Concentration” value in series [2] (time 0 min) was 0 µg/mL; in series [2] (time 4 min), 151 µg/mL; in series [2] (time 10 min), 203 µg/mL; in series [2] (time 20 min) it was 225 µg/mL; in series [2] (time 40 min), 238 µg/mL; in series [2] (time 90 min), 268 µg/mL. Also, in series [2] (time 1200 min), the “Drug Concentration” value turned out to be 370 µg/mL.
